Test results reported in ChEMBL document CHEMBL1201862, “PubChem BioAssay data set” (2004).
Each block holds one molecule with its values, some of them ahead of it. The source made the active and inactive calls.

Tests used:
[1] = biological target: T1, Short transient receptor potential channel 4 (Mus musculus, UniProt Q9QUQ5); experiment: block of DAMGO-driven TRPC4 calcium entry – cell-based, HEK293 TRPC4/mu-opioid, Fluo-4 calcium, dose response (AID 434942); assay type: functional;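 further: potency of inhibitors blocking the TRPC4 calcium response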
T1 sequence (Q9QUQ5 whole entry): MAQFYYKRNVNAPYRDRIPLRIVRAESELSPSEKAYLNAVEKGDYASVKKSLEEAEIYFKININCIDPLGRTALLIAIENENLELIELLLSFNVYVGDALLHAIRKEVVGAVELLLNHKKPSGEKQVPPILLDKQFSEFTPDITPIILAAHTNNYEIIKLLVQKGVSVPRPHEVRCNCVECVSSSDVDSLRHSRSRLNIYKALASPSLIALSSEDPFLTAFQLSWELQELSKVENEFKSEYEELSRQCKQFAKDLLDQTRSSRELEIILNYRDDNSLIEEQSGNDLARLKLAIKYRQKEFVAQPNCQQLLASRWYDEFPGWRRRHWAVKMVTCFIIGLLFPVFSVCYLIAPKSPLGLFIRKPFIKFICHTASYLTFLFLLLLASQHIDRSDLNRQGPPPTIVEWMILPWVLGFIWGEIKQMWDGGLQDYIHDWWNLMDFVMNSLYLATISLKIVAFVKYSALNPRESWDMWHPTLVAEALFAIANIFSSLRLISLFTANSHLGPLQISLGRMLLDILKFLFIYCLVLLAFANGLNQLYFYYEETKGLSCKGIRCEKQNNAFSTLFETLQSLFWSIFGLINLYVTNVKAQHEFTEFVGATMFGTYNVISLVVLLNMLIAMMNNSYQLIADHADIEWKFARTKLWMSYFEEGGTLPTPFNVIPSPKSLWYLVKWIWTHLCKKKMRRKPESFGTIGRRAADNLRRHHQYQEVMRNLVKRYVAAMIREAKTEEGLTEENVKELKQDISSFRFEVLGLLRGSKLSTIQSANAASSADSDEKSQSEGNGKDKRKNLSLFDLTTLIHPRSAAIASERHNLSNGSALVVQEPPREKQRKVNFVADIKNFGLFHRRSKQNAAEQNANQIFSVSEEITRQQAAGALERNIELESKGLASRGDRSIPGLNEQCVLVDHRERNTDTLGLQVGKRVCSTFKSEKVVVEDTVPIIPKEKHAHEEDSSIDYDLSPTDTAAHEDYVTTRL

[2] = biological target: Phosphoethanolamine/phosphocholine phosphatase (Homo sapiens, UniProt Q8TCT1); experiment: SAR assay for compounds that inhibit PHOSPHO1. [Related pubchem assays (depositor defined):AID1545, AID1565, AID1574]
[3] = biological target: T2, Nucleotide-binding oligomerization domain-containing protein 1 (Homo sapiens, UniProt Q9Y239); experiment: SAR analysis of NF-kappaB dependent luciferase using DAP as an inducer - Set 2. [Related pubchem assays (depositor defined):AID1566, AID1575, AID1578, AID1579, AID1849, AID1852, AID2264]; assay type: functional
T2 sequence (Q9Y239 whole entry): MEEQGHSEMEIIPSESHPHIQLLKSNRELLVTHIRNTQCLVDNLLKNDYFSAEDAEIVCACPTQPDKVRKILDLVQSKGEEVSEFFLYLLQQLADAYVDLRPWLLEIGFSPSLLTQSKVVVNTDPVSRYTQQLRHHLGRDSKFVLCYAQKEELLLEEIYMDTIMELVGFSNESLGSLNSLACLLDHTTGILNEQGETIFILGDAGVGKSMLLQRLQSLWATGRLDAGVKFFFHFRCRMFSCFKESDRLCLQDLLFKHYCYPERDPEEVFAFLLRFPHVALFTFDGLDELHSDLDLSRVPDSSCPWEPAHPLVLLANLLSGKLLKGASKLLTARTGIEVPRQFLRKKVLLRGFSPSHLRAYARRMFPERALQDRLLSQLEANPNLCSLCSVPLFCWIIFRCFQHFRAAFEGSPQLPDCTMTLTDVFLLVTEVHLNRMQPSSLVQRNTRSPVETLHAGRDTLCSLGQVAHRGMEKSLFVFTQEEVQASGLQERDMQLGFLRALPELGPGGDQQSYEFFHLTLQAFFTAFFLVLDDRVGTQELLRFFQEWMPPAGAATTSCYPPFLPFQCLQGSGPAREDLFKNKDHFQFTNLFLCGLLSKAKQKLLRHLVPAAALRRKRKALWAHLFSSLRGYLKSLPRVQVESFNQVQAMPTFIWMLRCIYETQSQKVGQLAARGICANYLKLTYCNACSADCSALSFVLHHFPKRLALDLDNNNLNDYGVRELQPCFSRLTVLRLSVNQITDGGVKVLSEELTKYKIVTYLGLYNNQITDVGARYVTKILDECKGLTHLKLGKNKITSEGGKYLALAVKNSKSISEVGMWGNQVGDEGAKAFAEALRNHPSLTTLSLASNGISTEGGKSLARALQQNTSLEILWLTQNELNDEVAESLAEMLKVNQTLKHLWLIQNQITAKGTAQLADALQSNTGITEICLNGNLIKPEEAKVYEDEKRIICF

[4] = biological target: T3, Interleukin-8 (Homo sapiens, UniProt P10145); experiment: SAR analysis of Tumor necrosis factor alpha (TNF-alpha) induced IL-8 secretion in MCF-7/NOD1 cells - Set 2. [Related pubchem assays (depositor defined):AID1575, AID2250, AID2260]; assay type: functional, cell-based
T3 sequence (P10145 whole entry): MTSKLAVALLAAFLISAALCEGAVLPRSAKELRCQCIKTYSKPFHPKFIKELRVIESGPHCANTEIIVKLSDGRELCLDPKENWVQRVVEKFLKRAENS

[5] = biological target: T3, Interleukin-8; experiment: SAR analysis of GM-Tri-DAP induced IL-8 secretion in MCF-7/NOD1 cells - Set 2. [Related pubchem assays (depositor defined):AID1575, AID1578, AID2333]; assay type: functional, cell-based
[6] = biological target: Nucleotide-binding oligomerization domain-containing protein 2 (Homo sapiens, UniProt Q9HC29); experiment: inhibition of NOD2 signaling – set 2, SAR follow-up (AID 2475); assay type: functional
[7] = system: HEK293; experiment: SAR analysis of compounds that are cytotoxic to HEK293 - Set 2. [Related pubchem assays (depositor defined):AID1575, AID1578, AID1849, AID2001, AID2333, AID2334, AID2335, AID2337, AID2800]; assay type: functional, cell-based; details: Homo sapiens
[8] = biological target: T2, Nucleotide-binding oligomerization domain-containing protein 1; experiment: SAR analysis of compounds that inhibit NOD1 - Set 2. [Related pubchem assays (depositor defined):AID1566, AID1575, AID1578, AID1849, AID1852, AID2333, AID2335, AID2798]; assay type: functional
[9] = biological target: T2, Nucleotide-binding oligomerization domain-containing protein 1; experiment: SAR analysis of compounds that inhibit NOD1 - Set 3. [Related pubchem assays (depositor defined):AID1566, AID1575, AID1578, AID1849, AID1852, AID2333, AID2335, AID2466]; assay type: functional
[10] = system: HEK293; experiment: SAR analysis of compounds that are cytotoxic to HEK293 - Set 3. [Related pubchem assays (depositor defined):AID1575, AID1578, AID1848, AID1849, AID2001, AID2333, AID2334, AID2335, AID2337, AID2469]; assay type: functional, cell-based; details: Homo sapiens

Sequence of Phosphoethanolamine/phosphocholine phosphatase (Q8TCT1 whole entry, the tested form may be a part): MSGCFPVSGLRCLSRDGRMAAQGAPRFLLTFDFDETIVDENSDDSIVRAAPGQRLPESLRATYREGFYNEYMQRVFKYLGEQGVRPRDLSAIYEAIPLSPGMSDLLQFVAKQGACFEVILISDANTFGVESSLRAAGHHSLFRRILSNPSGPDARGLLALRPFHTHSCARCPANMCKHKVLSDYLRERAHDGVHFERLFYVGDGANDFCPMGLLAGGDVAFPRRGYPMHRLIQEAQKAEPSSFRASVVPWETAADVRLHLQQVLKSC
Sequence of Nucleotide-binding oligomerization domain-containing protein 2 (Q9HC29 whole entry, the tested form may be a part): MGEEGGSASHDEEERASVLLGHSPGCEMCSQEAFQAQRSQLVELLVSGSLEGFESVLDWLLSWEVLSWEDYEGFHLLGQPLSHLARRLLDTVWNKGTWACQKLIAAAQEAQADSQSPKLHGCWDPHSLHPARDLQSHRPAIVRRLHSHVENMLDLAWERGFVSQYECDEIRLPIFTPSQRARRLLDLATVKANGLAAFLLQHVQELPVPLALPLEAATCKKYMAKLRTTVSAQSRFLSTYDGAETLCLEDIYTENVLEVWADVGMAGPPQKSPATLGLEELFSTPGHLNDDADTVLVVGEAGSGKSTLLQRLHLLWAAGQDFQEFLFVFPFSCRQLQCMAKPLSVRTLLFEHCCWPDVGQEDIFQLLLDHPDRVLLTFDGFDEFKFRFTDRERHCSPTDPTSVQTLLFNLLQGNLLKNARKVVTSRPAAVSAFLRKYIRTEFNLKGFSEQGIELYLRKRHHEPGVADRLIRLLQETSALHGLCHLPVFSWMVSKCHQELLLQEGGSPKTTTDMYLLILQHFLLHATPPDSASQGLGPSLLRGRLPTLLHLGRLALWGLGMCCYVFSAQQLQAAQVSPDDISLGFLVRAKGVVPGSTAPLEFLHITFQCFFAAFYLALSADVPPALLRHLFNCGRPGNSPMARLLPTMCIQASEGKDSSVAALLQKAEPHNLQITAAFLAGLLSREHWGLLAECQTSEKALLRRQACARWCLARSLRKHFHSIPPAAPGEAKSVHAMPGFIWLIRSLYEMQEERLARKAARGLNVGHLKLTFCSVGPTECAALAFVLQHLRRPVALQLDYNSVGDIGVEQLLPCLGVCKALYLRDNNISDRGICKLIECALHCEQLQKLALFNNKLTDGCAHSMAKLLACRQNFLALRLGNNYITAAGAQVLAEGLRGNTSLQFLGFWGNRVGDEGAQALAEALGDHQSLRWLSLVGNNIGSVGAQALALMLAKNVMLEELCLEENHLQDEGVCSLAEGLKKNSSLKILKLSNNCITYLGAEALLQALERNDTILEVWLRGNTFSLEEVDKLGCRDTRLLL

EC50 [1]: 9.44 µM (active)
Compound: CCOC(=O)C1(Cc2cccc(OC)c2)CCN(Cc2cccc(O)c2)CC1

IC50 [2]: 2.59 µM (inactive)
Compound: c1ccc(CNc2nc(-c3ccccc3)[n+](-c3ccccc3)s2)cc1

Compound: CCCCn1c(SCC(=O)Nc2nnc(CC)s2)nc2c1c(=O)n(C)c(=O)n2C
IC50 [3]: > 25 µM (inactive) | IC50 [4]: > 25 µM (inactive) | IC50 [5]: > 25 µM (inactive) | IC50 [6]: 7.19 µM (active) | IC50 [7]: > 20 µM (inactive) | IC50 [8]: 7.92 µM (active) | IC50 [9]: 9.39 µM (active) | IC50 [10]: > 20 µM (inactive)
